Assay results from paper PMC5228037, “Discovery and Mechanistic Characterization of Selective Inhibitors of H2S-producing Enzyme: 3-Mercaptopyruvate Sulfurtransferase (3MST) Targeting Active-site Cysteine Persulfide” (Scientific Reports, 2017).

Target: T1, recombinant CBS (Rattus norvegicus, UniProt P32232)
T1 construct: GST (N, cleaved yes); made in house; host or cells: E. coli DH5α
T1 sequence (P32232 1-561): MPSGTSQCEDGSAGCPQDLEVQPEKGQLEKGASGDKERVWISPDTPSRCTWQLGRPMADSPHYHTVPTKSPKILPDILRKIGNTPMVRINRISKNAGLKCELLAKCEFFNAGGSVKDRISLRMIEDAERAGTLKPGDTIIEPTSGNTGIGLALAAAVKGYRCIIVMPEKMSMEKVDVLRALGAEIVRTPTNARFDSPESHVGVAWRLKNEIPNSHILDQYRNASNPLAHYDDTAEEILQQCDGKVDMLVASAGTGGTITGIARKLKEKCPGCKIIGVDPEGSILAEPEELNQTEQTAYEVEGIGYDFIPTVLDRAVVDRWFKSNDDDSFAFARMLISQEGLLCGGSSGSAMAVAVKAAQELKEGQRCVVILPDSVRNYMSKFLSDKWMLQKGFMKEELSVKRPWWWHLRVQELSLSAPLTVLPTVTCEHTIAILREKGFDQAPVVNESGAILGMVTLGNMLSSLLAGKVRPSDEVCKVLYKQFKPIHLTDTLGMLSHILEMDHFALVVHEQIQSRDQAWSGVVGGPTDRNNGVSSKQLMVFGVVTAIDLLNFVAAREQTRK
Assay: Inhibitory activity towards purified CBS by gas chromatography
Format: biochemical
Conditions: 100 μM compound, 10 mM L-cysteine and DL-homocysteine
Experimental: Figure 2 Selectivity assessment of hit compounds for 3MST over other H2S/polysulfides-producing enzymes and rhodanese. (a) 3MST-Inhibitory activity of hit compounds at 10 and 100 μM in cell lysate of 3MST-expressing HEK293 cells. 100 μM 3MP and 100 μM DTT were added to the solution containing 0.1% DMSO as a cosolvent, and the mixture was incubated at 37 °C for 15 min. H2S production was measured by gas chromatography. All data are presented as the mean ± S.D. (100 μM: n = 3 or 4; 10 μM: n = 3). (b) Selectivity assessment of hit compounds at 100 μM towards CBS and CSE. Only DMSO was added to the control sample instead of DMSO solution containing hit compounds. H2S production was monitored by gas chromatography. All data are presented as the mean (n = 3). (c) Detection method for rhodanese activity (Sörbo method). (d) Selectivity assessment of hit compounds towards rhodanese. The results are mean ± S.D. (n = 4, three times). These values were determined based upon the absorbance of [Fe(SCN)3] at 460 nm (Sӧrbo method). Bovine rhodanese 1.3–1.7 units/mL, substrate: 52 mM Na2S2O3, 50 mM KCN, 0.004% (w/v) BSA, 100 μM compound and DMSO 1% (v/v) in 88 mM potassium phosphate buffer (pH 8.6) at room temperature for 5 min incubation. (e) Fluorescence confocal microscopic images of live COS7 cells transfected with 3MST or an empty vector[9] as a control. Cells were incubated with 50 μM SSP4, a fluorescent probe for sulfane sulfur, and 10 μM, 1 μM, 0.5 μM, 0.1 or 0 μM compound 3 in DMEM containing 0.6% DMSO for 30 min, then washed with HBSS and placed in fresh DMEM with 0‒10 μM compound 3 (Pre). 500 μM 3MP was added to the cells and the cells were incubated for 10 min (10 min). (f) Graphic representation of (e). F/F0 was calculated by dividing the fluorescence intensity of cells after addition of 500 μM 3MP (10 min) by that of cells before addition of 500 μM 3MP (Pre), then the mean F/F0 was determined from 5 cells. All data represent the mean ± standard error of the mean (SEM) of three experiments.
GST-tagged rat CSE-HA or rat CBS-HA was expressed in E. coli DH5α as follows. E. coli DH5α transformed with the pGEX-rCSE-HA or pGEX-rCBS-HA plasmid was cultured overnight in LB medium containing 100 μg/mL ampicillin (and 0.3 mM 5-aminolevulinic acid, for CBS) at 37 °C, and the 120 mL culture was inoculated into 2400 mL of LB medium. Further growth of the culture was performed at 37 °C with vigorous shaking until OD600 reached 0.8. IPTG was added to the E. coli DH5α culture at a final concentration of 0.1 mM and incubation was continued at 18 °C. […]

NC(=O)c1ccsc1NC(=O)CSc1nc2ccccc2c(=O)[nH]1 [compound 1]
inhibition at 100 µM (read-out: Inhibition of recombinant CBS enzymatic activity (H2S production)): ~25%

Cc1sc2nc(SCC(=O)c3ccc(O)cc3O)[nH]c(=O)c2c1C [compound 2]
Inhibition of recombinant CBS enzymatic activity (H2S production): enhanced H2S production

O=C(O)c1cccc(NS(=O)(=O)c2ccccc2)c1 [compound 5]
Inhibition of recombinant CBS enzymatic activity (H2S production): enhancement of H2S production

Cc1cc(=O)[nH]c(SCC(=O)c2cccc3ccccc23)n1 [compound 3]
Inhibition of recombinant CBS enzymatic activity (H2S production): almost inactive
